Where two headings read alike, the source gives them in different places.
What was measured:
eIF4E = eIF4E (Homo sapiens, UniProt P06730); test: NMR binding experiments (titration with protein)
Procedure: Experiments were carried out with representative compounds to provide an indication of the ability of the compounds of the present invention to bind to eIF4E and therefore act as inhibitors of the binding of eIF4E to eIF4G.

CRL2813 human melanoma = test: SRB assay (inhibition of cell proliferation); format: cell-based
From the text: (§1) A sulfur rhodamine B (SRB) assay was used to determine the extent of inhibition of cell proliferation as a measure of the anti-cancer activity of compounds of the present disclosure. The reagent SRB binds to cellular proteins and absorbs light proportionally to the cellular protein content, which is a surrogate marker for the number of cells. According to aspects of the present disclosure, the assay can be used to with any cancer cell line including breast cancer cell lines, prostate cancer cell lines, melanoma cell lines, lung cancer cell lines or any other cell lines of the cancers described herein.
(§2) The following protocol was used to determine the growth characteristics of certain cell lines CRL2351 human breast cancer and CRL2813 human melanoma from which cell lines having doubling times less than 48 hours were selected for growth inhibition experiments. […] The following materials were used in addition to the cancel cell lines: complete (5% fetal calf serum added) tissue culture media, 96-well tissue culture plates, Sulforhodamine B dye (SRB, 0.57% w/w), […] (TCA, 10%), acetic acid glacial (1%) and 10 mM Tris base. The cells were prepared and plated. Cancer cells were grown to 80% confluency in an incubator. The cells were trypsinized per standard protocol or as needed for each cell line. The trypsin was neutralized, cells dissociated and counted. Each cell line was plated at a density of 500, 1000 and 3000 cells per well (six wells each) in five separate plates. The cells were then returned to the incubator. One plate was then removed each day starting day one after plating. 100 μl of 10% TCA was then added and the cells were fixed at 4° C. until all the cells were fixed. […] The cell growth for vehicle treatment is considered to be 100%. The optical density was then measured and plotted for each starting cell number and cell line against time. The percent cell growth inhibition was calculated as 100 minus the % of control cell growth. The % of control cell growth=((mean OD sample−Mean OD day 0)/(mean OD vehicle−Mean OD day 0))*100.

[1] = system: CRL2351 human breast cancer; test: SRB assay (inhibition of cell proliferation); format: cell-based; conditions: CRL2351 human breast cancer cells
From the text: as §1, §2

eIF4E/eIF4G interaction = eIF4E/eIF4G interaction (Homo sapiens, UniProt P06730); test: Fluorescent polarization assay; format: binding; conditions: FITC eIF4G peptide and recombinant eIF4E, ratio to Z (4EGI-1 = 1)
Procedure: The difference between the two measurement yields net polarization which is considered full signal of the assay (100% control). […] The activity of compound at each concentration is determined by comparing the fluorescent polarization (FP) signal in the presence of compound to the control (no compound) value. The percent inhibition is =100-((FP compound/FP control)*100).

[2] = CRL2813 human melanoma cells, summary table, read-out: IC50 [μM} CRL2813
[3] = summary table, read-out: IC50 [μM} CRL2351
[4] = Homo sapiens, CRL2813, CRL2813 human melanoma cells, summary table, read-out: IC50 [μM} CRL2813
[5] = Homo sapiens, summary table, read-out: IC50 [μM} CRL2351
[6] = Homo sapiens, Tables 1, 4, 5, read-out: SRB-IC50 (μM) 2351

Sequence of eIF4E (P06730 27-217 limits assumed): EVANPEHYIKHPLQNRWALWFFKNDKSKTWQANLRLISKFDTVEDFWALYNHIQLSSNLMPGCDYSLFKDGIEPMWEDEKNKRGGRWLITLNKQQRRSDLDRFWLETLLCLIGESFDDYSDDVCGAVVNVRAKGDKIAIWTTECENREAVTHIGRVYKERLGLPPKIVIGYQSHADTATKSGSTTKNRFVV
Sequence of eIF4E/eIF4G interaction (P06730 whole entry): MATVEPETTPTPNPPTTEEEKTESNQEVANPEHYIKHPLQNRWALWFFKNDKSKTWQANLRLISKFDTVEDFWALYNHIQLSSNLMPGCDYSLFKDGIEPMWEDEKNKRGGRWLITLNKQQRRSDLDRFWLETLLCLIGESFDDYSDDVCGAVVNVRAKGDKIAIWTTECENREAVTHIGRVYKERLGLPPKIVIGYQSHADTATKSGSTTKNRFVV

Row | SMILES | Fp (ratio to Z) (eIF4E/eIF4G interaction) | IC50 (CRL2813 human melanoma; [4]) | IC50 [1, 5] | also measured
1 | O=C(O)C(Cc1ccccc1[N+](=O)[O-])NNc1nc(-c2ccc(Cl)c(Cl)c2)cs1 (centres unmarked) [KY-720] | – | – | – | IC50 (eIF4E): ~4 µM
2 | O=C(O)[C@H](Cc1ccccc1[N+](=O)[O-])Nc1nc(-c2ccc(Cl)c(Cl)c2)cs1 [KY-549] | – | – | – | IC50 (eIF4E): ~7 µM
3 | O=C(O)C(Cc1ccc(O)cc1)=NNc1nc(-c2cccc([N+](=O)[O-])c2)cs1 [KY-A6] | – | – | – | IC50 (eIF4E): ~5 µM
4 | COc1ccc(-c2nc(NN=C(Cc3ccccc3[N+](=O)[O-])C(=O)O)sc2-c2ccc(OC)cc2)cc1 [KY-323B] | 0.6 | – | – | IC50 (CRL2813 human melanoma; [2]): 7 ± 2.6 µM; IC50 [1, 3]: 20 ± 3.7 µM
5 | Cc1ccc(-c2nc(NN=C(Cc3ccccc3[N+](=O)[O-])C(=O)O)sc2-c2ccc(Cl)c(Cl)c2)cc1 [KY-365A22-B3] | 0.85 | 3.3 µM | 3.2 µM | –
6 | COc1ccc(-c2csc(NN=C(Cc3ccccc3[N+](=O)[O-])C(=O)O)n2)cc1 [EK-B2] | 0.86 | 11 µM | 7 µM | –
7 | COc1ccc(-c2sc(N/N=C(/Cc3ccccc3[N+](=O)[O-])C(=O)O)nc2-c2ccc(-c3ccccc3)cc2)cc1 [KY-577SF, 2-{[4-Biphenyl-4-yl-5-(4-methoxy-phenyl)-thiazol-2-yl]-hydrazono}-3-(2-nitro-phenyl)-propionic acid] | 1 | – | – | IC50 (CRL2813 human melanoma; [2]): 0.1 µM; IC50 [1, 3]: 0.7 µM
8 | COc1ccc(-c2nc(NN=C(Cc3ccccc3[N+](=O)[O-])C(=O)O)sc2-c2ccc(N=[N+]=[N-])cc2)cc1 [KY-379S] | 1.2 | 3 ± 0.2 µM | 1.2 ± 0.04 µM | –
9 | COc1ccc(-c2nc(N/N=C(/Cc3ccccc3[N+](=O)[O-])C(=O)O)sc2-c2cccc(-n3cc(CO)nn3)c2)cc1 [KY-467S] | 0.85 | > 20 µM | > 20 µM | –
10 | COc1ccc(-c2nc(N/N=C(\Cc3ccccc3[N+](=O)[O-])C(=O)O)sc2-c2ccc(-c3ccccc3)cc2)cc1 [KY-435-S] | 2 | – | – | IC50 (CRL2813 human melanoma; [2]): < 0.54 µM; IC50 [1, 3]: < 0.54 µM
11 | O=C(O)/C(Cc1c(Br)cccc1[N+](=O)[O-])=N/Nc1nc(-c2ccc(Cl)c(Cl)c2)cs1 [RYF-339F] | 2.0 | 1 µM | < 0.54 µM | –
12 | CCOc1ccc(-c2nc(N/N=C(/Cc3ccccc3[N+](=O)[O-])C(=O)O)sc2-c2ccc(OC)cc2)cc1 [KY-576S] | 0.82 | – | – | IC50 (CRL2813 human melanoma; [2]): 12.8 µM; IC50 [1, 3]: > 20 µM
13 | O=C(O)/C(Cc1ccccc1[N+](=O)[O-])=N/Nc1nc2c(s1)CCc1cc(Cl)c(Cl)cc1-2 [PC-159F, 2-(2-(7,8-dichloro-4,5-dihydronaphtho[1,2-d]thiazol-2-yl)hydrazono)-3-(2-nitrophenyl)propanoic acid] | 1.05 | < 1 µM | < 1 µM | –
14 | COc1ccc(-c2sc(N/N=C(\Cc3ccccc3[N+](=O)[O-])C(=O)O)nc2-c2ccc(SC)cc2)cc1 [KY-611-pri-S] | 0.62 | 6.2 µM | 15.5 µM | –

More lines, main results first:

Row | Fp (ratio to Z) (eIF4E/eIF4G interaction) | IC50 (CRL2813 human melanoma; [4]) | IC50 [1, 5] | SMILES | also measured
15 | 1.2 | 15 ± 1.12 µM | > 20 µM | COc1ccc(-c2nc(NN=C(Cc3ccccc3[N+](=O)[O-])C(=O)O)sc2-c2ccc(-n3cc(-c4cccc(O)c4)nn3)cc2)cc1 [KY-441] | –
16 | 1.5 | 17 ± 1.29 µM | > 20 µM | COc1ccc(-c2nc(NN=C(Cc3ccccc3[N+](=O)[O-])C(=O)O)sc2-c2ccc(-n3cc(CCCO)nn3)cc2)cc1 [KY-447] | –
17 | 0.85 | 7.5 µM | 13.5 µM | O=C(O)/C(Cc1c[nH]c2ccccc12)=N\Nc1nc(-c2ccc(Cl)c(Cl)c2)cs1 [KY-753, (Z/E)-2-(2-(4-(3,4-dichlorophenyl)thiazol-2-yl)hydrazono)-3-(1H-indol-3-yl)propanoic acid] | –
18 | 0.7 | 3 µM | 3 µM | NC(=O)/C(Cc1ccccc1[N+](=O)[O-])=N/Nc1nc(-c2ccc(Cl)c(Cl)c2)cs1 [KY-725] | –
19 | 1 | 13 ± 0.82 µM | > 20 µM | COc1ccc(-c2cn(-c3ccc(-c4sc(NN=C(Cc5ccccc5[N+](=O)[O-])C(=O)O)nc4-c4ccc(OC)cc4)cc3)nn2)cc1 [KY-445] | –
20 | 0.7 | 2.8 µM | 4.5 µM | COc1ccc(-c2sc(N/N=C(/Cc3ccccc3[N+](=O)[O-])C(=O)O)nc2-c2ccc(Cl)c(Cl)c2)cc1 [KY-600] | –
21 | 2.3 | 13 ± 3.6 µM | > 20 µM | COc1ccc(-c2nc(NN=C(Cc3ccccc3[N+](=O)[O-])C(=O)O)sc2-c2ccc(-n3cc(CO)nn3)cc2)cc1 [KY-383, 2-{[5-[4-(4-hydroxymethyl-[1,2,3]triazol-1-yl)-phenyl]-4-(4-methoxy-phenyl)-thiazol-2-yl]-hydrazono}-3-(2-nitro-phenyl)-propionic acid] | IC50 (eIF4E): ~3 µM
22 | 4 | > 20 µM | > 20 µM | O=C(O)/C(=N\Nc1nc(-c2ccc(Cl)c(Cl)c2)cs1)c1c[nH]c2ccccc12 [KY-689, {[4-(3,4-Dichloro-phenyl)-thiazol-2-yl]-hydrazono}-(1H-indol-3-yl)-acetic acid] | –
23 | 0.82 | 11 µM | 1.2 µM | [N-]=[N+]=NCCOc1cccc(-c2csc(N/N=C(/Cc3ccccc3[N+](=O)[O-])C(=O)O)n2)c1 [KH-174] | IC50 (CRL2813 human melanoma; Homo sapiens, CRL2813, CRL2813 human melanoma cells, Tables 1, 4, 5, read-out: SRB-IC50 (μM) 2813): 11 µM; IC50 [1, 6]: 1.3 µM
24 | 0.91 | – | – | [N-]=[N+]=NCCCOc1ccc(-c2csc(N/N=C(/Cc3ccccc3[N+](=O)[O-])C(=O)O)n2)cc1 [KH-167s] | IC50 (CRL2813 human melanoma; CRL2813 human melanoma cells, Tables 1, 4, 5, read-out: SRB-IC50 (μM) 2813): 11.9 µM; IC50 (CRL2813 human melanoma; [2]): 12 µM; IC50 [1, 3]: 2.7 µM; IC50 [1, 6]: 2.8 µM
